From patent US8686113B2 (priority 2009, dated 2014)
In brackets after ≈: the same amount, converted by molar mass. Where two headings read alike, the source gives them in different places. Non-standard residues stand in square brackets, D forms with d. Residues, ends and D or L forms follow the SMILES beside them. No end group written: not given here. Hyp = O=C(O)[C@@H]1C[C@@H](O)CN1; Tle = CC(C)(C)[C@H](N)C(=O)O; Orn = NCCC[C@H](N)C(=O)O

Columns and labels:
[1] = system: E. coli BL21 A1; type: cell-based, Escherichia coli
Outline: (§1)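 Broth microdilution in 1% TSB with twofold peptide series, final 128 μg/mL to 62.5 ng/mL, against 5×10^6 bacteria/mL stock suspension added 1:1. Incubated 20 h at 37 °C, growth read by absorbance at 595 nm; MIC is the lowest concentration with no growth, determined in triplicate.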

[2] = Stability against bacterial proteases in E. coli lysate; type: in vitro ADME; conditions: E. coli lysate with 0.5 mg/mL protein concentration, 37° C.
Experimental: For the bacterial lysate, 500 mL of nutrient broth (Carl Roth GmbH+Co. KG, Karlsruhe) was inoculated with E. coli BL21 A1 and incubated overnight at 37° C. 2×250 mL bacterial suspension were centrifuged for 25 min at 5000 rpm and 4° C. in a Beckman Avanti™ J-20-XP centrifuge with JLA-10.500 rotor (Beckman Coulter, Fullerton, U.S.A.). The pellets were each suspended in 30 mL PBS (pH 7.4) and centrifuged again in a Beckman Allegra™ 2IR centrifuge (Beckman Coulter, Fullerton, U.S.A.). The pellets were each suspended in 10 mL PBS and were disrupted with ultrasound (Vibra-cell™ microtip, Fisher Bioblock Scientific, Illkirch, France) 2×5 min (750 W; amplitude 40%; 2 s on/3 s off) on ice. The bacterial lysates were combined and 1 mL aliquots were centrifuged at 15400 rpm for 20 min at 4° C. (Beckman Allegra™). The supernatants were removed and stored at −20° C. The protein content of the bacterial lysate was determined by protein determination according to Bradford.
A solution of 0.15 μg/mL peptide in bacterial lysate with protein content of 1.5 mg/mL or 0.5 mg/mL was incubated at 37° C. After 0, 30, 60, 120, 240 or 360 min, 200 μL was taken from each and the proteins were precipitated with 50 μL of 15% trichloroacetic acid. Then it was incubated for 10 min at 4° C. and then centrifuged for 5 min at 13000 rpm in a Minispin desktop centrifuge. 210 μL was taken from the supernatant and neutralized with 1 mol/L sodium hydroxide solution. The intact peptide and the degradation products were analyzed by HPLC. 60 μL of 3% aqueous acetonitrile with 0.1% trifluoroacetic acid (TFA) was added to the solution and 250 μL of the mixture was injected. After chromatographic separation, the constituents were identified by MALDI-TOF-MS,
In order to investigate the stability against bacterial proteases, a lysate was prepared from an overnight culture of E. coli BL21 A1 and the peptides were incubated in it. Using Bradford protein determination, the protein concentration was adjusted to 0.5 or 1.5 mg/mL.

[3] = system: M. luteus 10240; assay: Growth inhibition assay (microdilution MIC); type: cell-based, Micrococcus luteus; conditions: 10240, 20 h
Outline: as §1

[4] = mouse, serum
[5] = system: Escherichia coli DSM 10233
Experimental: The minimum inhibitory concentrations (MIC) of the antimicrobial peptides and peptide derivatives were determined in microdilution assays. These used a continuous peptide dilution in sterile flat-bottomed 96-well microtiter plates (polystyrene, Greiner Bio-One GmbH, Frickenhausen, Germany) and a total volume of 100 μL per well. The aqueous peptide or peptidomimetic solutions were diluted with 1% TSB water, to obtain a final concentration of 256 μg/mL. 50 μL of the peptide or peptidomimetic solution was pipetted into the first well of each series and stirred. From this solution, 50 μL was transferred to the second well, stirred and again 50 μL was transferred to the next well, and so on. A double dilution series is obtained, beginning at 256 μg/mL in the first well to 125 ng/mL in the twelfth well. The bacteria, e.g. E. coli BL21 A1, were cultured overnight at 37° C. in nutrient broth (NB, Carl Roth GmbH+Co. KG, Karlsruhe, Germany). 50 μL of a 5×10^6 bacteria/mL suspension in 1% TSB was added to each well of the microtiter plate and thus a final concentration of the peptides or peptidomimetics from 128 μg/mL (well 1) to 62.5 ng/mL (well 12) was established in each series. The plates were incubated at 37° C. for 20 h and then the absorption was measured at 595 nm with a TECAN microtiter plate spectrophotometer (Tecan Trading AG, Mannedorf, Switzerland). The MIC values of all peptides and peptidomimetics were determined in triplicate. Sterile water was used as negative control.
The peptides shown in Table 8 were investigated for their MIC against pathogenic bacteria such as E. coli DSM 10233, K. pneumoniae DSM 681 and P. aeruginosa DSM 3227.

[6] = 25% aqueous mouse serum, 37° C., 75 μg/mL peptide
[7] = Half-life in 25% mouse serum, 25% aqueous mouse serum, 37° C., 75 μg/mL peptide
[8] = half-life in 25% aqueous mouse serum, 25% serum
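Wherever Half-life in 25% mouse serum is given: intact peptide left at successive time points measured by reversed-phase HPLC with an acetonitrile gradient in the supernatant after precipitation of serum proteins.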

CC(C)C[C@H](NC(=O)[C@H](CCCN)NC(=O)[C@H](CCCNC(=N)N)NC(=O)[C@@H]1CCCN1C(=O)[C@@H]1CCCN1C(=O)[C@H](CCCNC(=N)N)NC(=O)[C@@H]1CCCN1C(=O)[C@H](CCCNC(=N)N)NC(=O)[C@@H]1CCCN1C(=O)[C@H](CC(C)C)NC(=O)[C@H](Cc1ccc(O)cc1)NC(=O)[C@@H]1CCCN1C(=O)[C@@H]1CCCN1C(=O)[C@H](CCCCN)NC(=O)[C@H](CC(=O)O)NC(=O)[C@@H](N)C(C)C)C(=O)N[C@@H](Cc1ccc(O)cc1)C(=O)N[C@@H](CC(N)=O)C(=O)N[C@@H](CCCN)C(N)=O [compound 73] (H-VDKPPYLPRPRPPR[Orn]LYN[Orn]-NH2)
MIC E. coli BL21 A1 ([1]; BL21, 20 h): 8 µg/mL (≈ 3.47 µM)
half-life [2]: 1.5 h
MIC M. luteus 10240 [3]: 16 µg/mL (≈ 6.94 µM)

CC[C@H](C)[C@H](NC(=O)[C@@H]1C[C@@H](O)CN1C(=O)[C@H](CCCNC(=N)N)NC(=O)[C@@H]1CCCN1C(=O)[C@@H]1CCCN1C(=O)[C@H](CCCNC(=N)N)NC(=O)[C@@H]1CCCN1C(=O)[C@H](CCCNC(=N)N)NC(=O)[C@@H]1CCCN1C(=O)[C@H](CC(C)C)NC(=O)[C@H](Cc1ccc(O)cc1)NC(=O)[C@@H]1CCCN1C(=O)[C@@H]1CCCN1C(=O)[C@H](CCCCN)NC(=O)[C@H](CC(=O)O)NC(=O)[C@@H](N)C(C)C)C(=O)N[C@@H](Cc1ccc(O)cc1)C(=O)N[C@@H](CC(N)=O)C(=O)N[C@@H](CCCN)C(N)=O [SEQ ID NO. 63] (H-VDKPPYLPRPRPPR[Hyp]IYN[Orn]-NH2)
MIC values against E. coli [1]: 4 µg/mL (≈ 1.74 µM)
MIC E. coli BL21 A1 ([1]; 1% TSB, 20 h at 37° C.): 4 µg/mL (≈ 1.74 µM)
half-life [4, 7]: > 6 h
half-life [4, 8]: > 6 h
MIC E. coli DSM 10233 [5]: 1 to 4 µg/mL
MIC M. luteus 10240 [3]: 8 µg/mL (≈ 3.47 µM)

CC(C)C[C@H](NC(=O)[C@H](Cc1ccc(O)cc1)NC(=O)[C@@H]1CCCN1C(=O)[C@@H]1CCCN1C(=O)[C@H](CCCCN)NC(=O)[C@H](CC(=O)O)NC(=O)[C@@H](N)C(C)C)C(=O)N1CCC[C@H]1C(=O)N[C@@H](CCCNC(=N)N)C(=O)N1CCC[C@H]1C(=O)N[C@@H](CCCNC(=N)N)C(=O)N1CCC[C@H]1C(=O)N1C[C@H](O)C[C@H]1C(=O)N[C@@H](CCCNC(=N)N)C(=O)N1C[C@H](O)C[C@H]1C(=O)N[C@H](C(=O)N[C@@H](Cc1ccc(O)cc1)C(=O)N[C@@H](CC(N)=O)C(=O)N[C@@H](CCCN)C(N)=O)C(C)(C)C [SEQ ID NO. 110] (H-VDKPPYLPRPRP[Hyp]R[Hyp][Tle]YN[Orn]-NH2)
MIC E. coli BL21 A1 ([1]; 1% TSB, 20 h at 37° C.): 2 µg/mL (≈ 0.862 µM)
half-life [2]: > 4 h

CC(C)C[C@H](NC(=O)[C@H](Cc1ccc(O)cc1)NC(=O)[C@@H]1CCCN1C(=O)[C@@H]1CCCN1C(=O)[C@H](CCCCN)NC(=O)[C@H](CC(=O)O)NC(=O)[C@@H](N)C(C)C)C(=O)N1CCC[C@H]1C(=O)N[C@@H](CCCNC(=N)N)C(=O)N1CCC[C@H]1C(=O)N[C@@H](CCCNC(=N)N)C(=O)N1CCC[C@H]1C(=O)N1CCC[C@H]1C(=O)N[C@@H](CCCNC(=N)N)C(=O)N[C@@H](CCCN)C(=O)N[C@H](C(=O)N[C@@H](Cc1ccc(O)cc1)C(=O)N[C@@H](CC(N)=O)C(=O)N[C@@H](CCCN)C(N)=O)C(C)(C)C [SEQ ID NO. 109, VDKPPYLPRPRPPRO-Tle-YNO-NH2] (H-VDKPPYLPRPRPPR[Orn][Tle]YN[Orn]-NH2)
half-life [2]: > 4 h

VDKPPYLPRPRPPRRIYNR [compound 19]
MIC E. coli BL21 A1 ([1]; BL21, 20 h): 32 µg/mL
Half-life in 25% mouse serum [6]: <0.5 h
MIC M. luteus 10240 [3]: 64 µg/mL

CC[C@H](C)[C@H](NC(=O)[C@H](CCCN)NC(=O)[C@H](CCCNC(=N)N)NC(=O)[C@@H]1CCCN1C(=O)[C@@H]1CCCN1C(=O)[C@H](CCCNC(=N)N)NC(=O)[C@@H]1CCCN1C(=O)[C@H](CCCNC(=N)N)NC(=O)[C@@H]1CCCN1C(=O)[C@H](CC(C)C)NC(=O)[C@H](Cc1ccc(O)cc1)NC(=O)[C@@H]1CCCN1C(=O)[C@@H]1CCCN1C(=O)[C@H](CCCCN)NC(=O)[C@H](CC(=O)O)NC(=O)[C@@H](N)C(C)C)C(=O)N[C@@H](Cc1ccc(O)cc1)C(=O)N[C@@H](CC(N)=O)C(=O)N[C@@H](CCCN)C(N)=O [SEQ ID NO. 72, VDKPPYLPRPRPPROIYNO-NH2] (H-VDKPPYLPRPRPPR[Orn]IYN[Orn]-NH2)
MIC values against E. coli [1]: 8 µg/mL (≈ 3.47 µM)
MIC E. coli BL21 A1 ([1]; BL21, 20 h): 8 µg/mL (≈ 3.47 µM)
half-life [2]: 1.92 h
half-life [4, 7]: > 6 h
half-life [4, 8]: > 6 h

CC[C@H](C)[C@H](NC(=O)[C@@H]1C[C@@H](O)CN1C(=O)[C@H](CCCNC(=N)N)NC(=O)[C@@H]1C[C@@H](O)CN1C(=O)[C@@H]1CCCN1C(=O)[C@H](CCCNC(=N)N)NC(=O)[C@@H]1CCCN1C(=O)[C@H](CCCNC(=N)N)NC(=O)[C@@H]1CCCN1C(=O)[C@H](CC(C)C)NC(=O)[C@H](Cc1ccc(O)cc1)NC(=O)[C@@H]1CCCN1C(=O)[C@@H]1CCCN1C(=O)[C@H](CCCCN)NC(=O)[C@H](CC(=O)O)NC(=O)[C@@H](N)C(C)C)C(=O)N[C@@H](Cc1ccc(O)cc1)C(=O)N[C@@H](CC(N)=O)C(=O)N[C@@H](CCCN)C(N)=O [SEQ ID NO. 108] (H-VDKPPYLPRPRP[Hyp]R[Hyp]IYN[Orn]-NH2)
MIC E. coli BL21 A1 ([1]; 1% TSB, 20 h at 37° C.): 2 µg/mL (≈ 0.862 µM)
MIC E. coli DSM 10233 [5]: 1 to 4 µg/mL

CC[C@H](C)[C@H](NC(=O)[C@H](CCCNC(=N)N)NC(=O)[C@H](CCCNC(=N)N)NC(=O)[C@@H]1CCCN1C(=O)[C@@H]1CCCN1C(=O)[C@H](CCCNC(=N)N)NC(=O)[C@@H]1CCCN1C(=O)[C@H](CCCNC(=N)N)NC(=O)[C@@H]1CCCN1C(=O)[C@H](CC(C)C)NC(=O)[C@H](Cc1ccc(O)cc1)NC(=O)[C@@H]1CCCN1C(=O)[C@@H]1CCCN1C(=O)[C@H](CCCCN)NC(=O)[C@H](CC(=O)O)NC(=O)[C@@H](N)C(C)C)C(=O)N[C@@H](Cc1ccc(O)cc1)C(=O)N[C@@H](CC(N)=O)C(=O)N[C@@H](CCCN)C(N)=O [compound 50] (H-VDKPPYLPRPRPPRRIYN[Orn]-NH2)
MIC E. coli BL21 A1 ([1]; BL21, 20 h): 8 µg/mL (≈ 3.41 µM)
Half-life in 25% mouse serum [6]: 2 h
MIC M. luteus 10240 [3]: 16 µg/mL (≈ 6.81 µM)

CC[C@H](C)[C@H](NC(=O)[C@H](CCCN)NC(=O)[C@H](CCCNC(=N)N)NC(=O)[C@@H]1C[C@@H](O)CN1C(=O)[C@@H]1CCCN1C(=O)[C@H](CCCNC(=N)N)NC(=O)[C@@H]1CCCN1C(=O)[C@H](CCCNC(=N)N)NC(=O)[C@@H]1CCCN1C(=O)[C@H](CC(C)C)NC(=O)[C@H](Cc1ccc(O)cc1)NC(=O)[C@@H]1CCCN1C(=O)[C@@H]1CCCN1C(=O)[C@H](CCCCN)NC(=O)[C@H](CC(=O)O)NC(=O)[C@@H](N)C(C)C)C(=O)N[C@@H](Cc1ccc(O)cc1)C(=O)N[C@@H](CC(N)=O)C(=O)N[C@@H](CCCN)C(N)=O [SEQ ID NO. 107] (H-VDKPPYLPRPRP[Hyp]R[Orn]IYN[Orn]-NH2)
half-life [2]: 3.58 h
